Data: PubChem BioAssay AID2060609 (Molecular Pharmacology Branch, DTP, NCI, 2025)

Tested on: 855422-203-R-J1-PDC complex spheroids, viability
Assay: Anticancer human tumor 855422-203-R-J1-PDC patient-derived bladder carcinoma cell line growth inhibition [CLK]
Settings: for IC50: curve of first compound; for viability, T/C: stronger effect = lower value
How it was run: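 Patient-derived tumor cells grown as complex spheroids with HUVEC endothelial cells and mesenchymal stem cells, treated with drug combinations. Concentrations descend in half-log steps from near clinical Cmax, or from 10 microM if Cmax unknown.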
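Further: spheroids exposed to drugs for seven days before readout.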
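Wherever viability, T/C is given: 100% = DMSO vehicle control wells.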

CC(C)CC(NC(=O)C(Cc1ccccc1)NC(=O)c1cnccn1)B(O)O (centres undefined) + CNC(=O)c1ccc(Nc2nc(OC3CCCC3)c3c(-c4ccc5nc(C)oc5c4)c[nH]c3n2)c(OC)c1
IC50 (second compound 0.0316 µM): < 0.949 nM | IC50 (second compound 0.1 µM): < 0.949 nM | IC50 (second compound 0.316 µM): < 0.949 nM | IC50 (second compound 1 µM): < 0.949 nM | IC50 (second compound 3.16 µM): < 0.949 nM | IC50 (second compound 10 µM): < 0.949 nM | viability, T/C (second compound 0.0316 µM, first compound 0.000949 µM): 4.13% | viability, T/C (second compound 0.0316 µM, first compound 0.003 µM): 0.22% | viability, T/C (second compound 0.0316 µM, first compound 0.00949 µM): 0.2% | viability, T/C (second compound 0.0316 µM, first compound 0.03 µM): 0.21% | viability, T/C (second compound 0.0316 µM, first compound 0.0949 µM): 0.17% | viability, T/C (second compound 0.0316 µM, first compound 0.3 µM): 0.18% | viability, T/C (second compound 0.1 µM, first compound 0.000949 µM): 2.95% | viability, T/C (second compound 0.1 µM, first compound 0.003 µM): 0.2% | viability, T/C (second compound 0.1 µM, first compound 0.00949 µM): 0.18% | viability, T/C (second compound 0.1 µM, first compound 0.03 µM): 0.17% | viability, T/C (second compound 0.1 µM, first compound 0.0949 µM): 0.17% | viability, T/C (second compound 0.1 µM, first compound 0.3 µM): 0.49% | viability, T/C (second compound 0.316 µM, first compound 0.000949 µM): 2.47% | viability, T/C (second compound 0.316 µM, first compound 0.003 µM): 0.17% | viability, T/C (second compound 0.316 µM, first compound 0.00949 µM): 0.13% | viability, T/C (second compound 0.316 µM, first compound 0.03 µM): 0.13% | viability, T/C (second compound 0.316 µM, first compound 0.0949 µM): 0.12% | viability, T/C (second compound 0.316 µM, first compound 0.3 µM): 0.54% | viability, T/C (second compound 1 µM, first compound 0.000949 µM): 1.78% | viability, T/C (second compound 1 µM, first compound 0.003 µM): 0.13% | viability, T/C (second compound 1 µM, first compound 0.00949 µM): 0.13% | viability, T/C (second compound 1 µM, first compound 0.03 µM): 0.1% | viability, T/C (second compound 1 µM, first compound 0.0949 µM): 0.14% | viability, T/C (second compound 1 µM, first compound 0.3 µM): 0.1% | viability, T/C (second compound 3.16 µM, first compound 0.000949 µM): 1.68% | viability, T/C (second compound 3.16 µM, first compound 0.003 µM): 0.13% | viability, T/C (second compound 3.16 µM, first compound 0.00949 µM): 0.65% | viability, T/C (second compound 3.16 µM, first compound 0.03 µM): 0.08% | viability, T/C (second compound 3.16 µM, first compound 0.0949 µM): 0.1% | viability, T/C (second compound 3.16 µM, first compound 0.3 µM): 0.11% | viability, T/C (second compound 10 µM, first compound 0.000949 µM): 1.83% | viability, T/C (second compound 10 µM, first compound 0.003 µM): 0.15% | viability, T/C (second compound 10 µM, first compound 0.00949 µM): 0.13% | viability, T/C (second compound 10 µM, first compound 0.03 µM): 0.12% | viability, T/C (second compound 10 µM, first compound 0.0949 µM): 0.28% | viability, T/C (second compound 10 µM, first compound 0.3 µM): 0.12%

O=C(c1cc(Cc2n[nH]c(=O)c3ccccc23)ccc1F)N1CCN(C(=O)C2CC2)CC1 + CNC(=O)c1ccc(Nc2nc(OC3CCCC3)c3c(-c4ccc5nc(C)oc5c4)c[nH]c3n2)c(OC)c1
IC50 (second compound 0.0316 µM): > 10000 nM | IC50 (second compound 0.1 µM): 4780 nM | IC50 (second compound 0.316 µM): < 31.6 nM | IC50 (second compound 1 µM): < 31.6 nM | IC50 (second compound 3.16 µM): < 31.6 nM | IC50 (second compound 10 µM): < 31.6 nM | viability, T/C (second compound 0.0316 µM, first compound 0.0316 µM): 117% | viability, T/C (second compound 0.0316 µM, first compound 0.1 µM): 100% | viability, T/C (second compound 0.0316 µM, first compound 0.316 µM): 111% | viability, T/C (second compound 0.0316 µM, first compound 1 µM): 98.1% | viability, T/C (second compound 0.0316 µM, first compound 3.16 µM): 112% | viability, T/C (second compound 0.0316 µM, first compound 10 µM): 82.5% | viability, T/C (second compound 0.1 µM, first compound 0.0316 µM): 58.6% | viability, T/C (second compound 0.1 µM, first compound 0.1 µM): 69.4% | viability, T/C (second compound 0.1 µM, first compound 0.316 µM): 63.6% | viability, T/C (second compound 0.1 µM, first compound 1 µM): 47.4% | viability, T/C (second compound 0.1 µM, first compound 3.16 µM): 57.2% | viability, T/C (second compound 0.1 µM, first compound 10 µM): 45.1% | viability, T/C (second compound 0.316 µM, first compound 0.0316 µM): 20.3% | viability, T/C (second compound 0.316 µM, first compound 0.1 µM): 21.5% | viability, T/C (second compound 0.316 µM, first compound 0.316 µM): 21.1% | viability, T/C (second compound 0.316 µM, first compound 1 µM): 23.7% | viability, T/C (second compound 0.316 µM, first compound 3.16 µM): 21.9% | viability, T/C (second compound 0.316 µM, first compound 10 µM): 23.8% | viability, T/C (second compound 1 µM, first compound 0.0316 µM): 24.4% | viability, T/C (second compound 1 µM, first compound 0.1 µM): 21.6% | viability, T/C (second compound 1 µM, first compound 0.316 µM): 21.1% | viability, T/C (second compound 1 µM, first compound 1 µM): 28.1% | viability, T/C (second compound 1 µM, first compound 3.16 µM): 22.1% | viability, T/C (second compound 1 µM, first compound 10 µM): 18.5% | viability, T/C (second compound 3.16 µM, first compound 0.0316 µM): 23.3% | viability, T/C (second compound 3.16 µM, first compound 0.1 µM): 22.3% | viability, T/C (second compound 3.16 µM, first compound 0.316 µM): 21.6% | viability, T/C (second compound 3.16 µM, first compound 1 µM): 19.9% | viability, T/C (second compound 3.16 µM, first compound 3.16 µM): 21.3% | viability, T/C (second compound 3.16 µM, first compound 10 µM): 23.4% | viability, T/C (second compound 10 µM, first compound 0.0316 µM): 18.5% | viability, T/C (second compound 10 µM, first compound 0.1 µM): 18% | viability, T/C (second compound 10 µM, first compound 0.316 µM): 17.9% | viability, T/C (second compound 10 µM, first compound 1 µM): 20% | viability, T/C (second compound 10 µM, first compound 3.16 µM): 19.9% | viability, T/C (second compound 10 µM, first compound 10 µM): 19.5%
